Test results reported in US20040023884A1, “Biologically active peptides from functional domains of bactericidal/permeability-increasing protein and uses thereof” (priority 1993, published 2004).
Converted amounts (≈) assume the structure as drawn. Square brackets hold non-standard residues; d marks the D form. Ends that are not written are not given here. Peptide text beside a SMILES is read from it. Phe(4-NH2) = Nc1ccc(C[C@H](N)C(=O)O)cc1; 1Nal = N[C@@H](Cc1cccc2ccccc12)C(=O)O; Cha = N[C@@H](CC1CCCCC1)C(=O)O

Experiments:
[1] = system: rough mutant E. coli J5 bacteria; test: Radial diffusion bactericidal assay, E. coli J5; assay type: cell-based; settings: radial diffusion; PROBIT analysis; E. coli J5 (rough)
How it was run: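 Wells received 5 or 10 μL of BPI fragment, pre-incubated 3 h at 37 °C. The underlayer agarose carried washed log-phase organisms at 4×10^6 CFU/mL.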

[2] = system: E. coli 0111:B4 (smooth) bacteria; test: Radial diffusion bactericidal assay, E. coli 0111:B4; assay type: cell-based; settings: radial diffusion; PROBIT analysis; E. coli O111:B4 (smooth)
Staphylococcus aureus = test: Radial diffusion bactericidal assay, Staphylococcus aureus; assay type: cell-based; settings: radial diffusion; PROBIT analysis; S. aureus
C. albicans = test: Radial diffusion fungicidal assay, Candida albicans; assay type: cell-based; settings: for C. albicans: pmol required for 30 mm^2 zone: radial diffusion
Candida albicans = assay type: cell-based
[3] = 3H-heparin binding assay (affinity and capacity); settings: for Heparin Capacity: heparin bound at saturation; for Kd: read-out: Heparin Affinity
How it was run: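 Peptide fragments were bound to PVDF-membrane wells and incubated with 3H-heparin in blocking buffer for 1 h at 4 °C. After washing, bound radioactivity was quantified by liquid scintillation counting, with BSA background subtracted; rBPI23 served as positive control.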

Compound	pmol added to well to achieve a 30 mm^2 bactericidal zone, E. coli J5 [1]	pmol added to well to achieve a 30 mm^2 bactericidal zone, E. coli O111:B4 [2]	pmol added to well to achieve a 30 mm^2 bactericidal zone, S. aureus (Staphylococcus aureus)	C. albicans: pmol required for 30 mm^2 zone (C. albicans) [pmol]	MIC C. alb (Candida albicans) [µg/mL]	Heparin Capacity [3] [ng]	Kd [3] [nM]	fold decrease in the radial diffusion assay test (fungicidal activity) (C. albicans; vs BPI.13)
CC[C@H](C)[C@H](NC(=O)[C@H](CC(C)C)NC(=O)[C@H](Cc1ccc(N)cc1)NC(=O)CNC(=O)[C@@H](NC(=O)[C@H](CCCCN)NC(=O)[C@H](CO)NC(=O)[C@@H](N)CCCCN)C(C)C)C(=O)N[C@@H](CCC(N)=O)C(=O)N[C@@H](CC(C)C)C(=O)N[C@@H](Cc1ccccc1)C(=O)N[C@@H](Cc1c[nH]cn1)C(=O)N[C@@H](CCCCN)C(=O)N[C@@H](CCCCN)C(=O)O [BPI.133] (H-KSKVG[Phe(4-NH2)]LIQLFHKK-OH; N-terminus and C-terminus assumed)	2,316.59 pmol	b (no detectable activity up to 5 μg/well)	b (no detectable activity up to 5 μg/well)	284.39	12.50 (≈ 7.4 µM)			
CC[C@H](C)[C@H](NC(=O)[C@H](CC(C)C)NC(=O)[C@H](Cc1c[nH]c2ccccc12)NC(=O)[C@H](Cc1ccc(N)cc1)NC(=O)[C@@H](NC(=O)[C@H](CCCCN)NC(=O)[C@H](CO)NC(=O)[C@@H](N)CCCCN)C(C)C)C(=O)N[C@@H](CCC(N)=O)C(=O)N[C@@H](CC(C)C)C(=O)N[C@@H](Cc1ccccc1)C(=O)N[C@@H](Cc1c[nH]cn1)C(=O)N[C@@H](CCCCN)C(=O)N[C@@H](CCCCN)C(=O)O [BPI.134] (H-KSKV[Phe(4-NH2)]WLIQLFHKK-OH; N-terminus and C-terminus assumed)	162.50 pmol	580.11 pmol	b (no detectable activity up to 5 μg/well)	1254.98	12.50 (≈ 6.88 µM)			
CC[C@H](C)[C@H](NC(=O)[C@H](CC(C)C)NC(=O)[C@H](Cc1c[nH]c2ccccc12)NC(=O)CNC(=O)[C@@H](NC(=O)[C@H](CCCCN)NC(=O)[C@H](CO)NC(=O)[C@@H](N)CCCCN)C(C)C)C(=O)N[C@@H](CCC(N)=O)C(=O)N[C@@H](Cc1cccc2ccccc12)C(=O)N[C@@H](Cc1ccccc1)C(=O)N[C@@H](Cc1c[nH]cn1)C(=O)N[C@@H](CCCCN)C(=O)N[C@@H](CCCCN)C(=O)O [BPI.143] (H-KSKVGWLIQ[1Nal]FHKK-OH; N-terminus and C-terminus assumed)	12,388.45 pmol	b (no detectable activity up to 5 μg/well)	b (no detectable activity up to 5 μg/well)	>2838.99	25.00 (≈ 13.9 µM)			
CC[C@H](C)[C@H](NC(=O)[C@H](CC(C)C)NC(=O)[C@H](CC1CCCCC1)NC(=O)CNC(=O)[C@@H](NC(=O)[C@H](CCCCN)NC(=O)[C@H](CO)NC(=O)[C@@H](N)CCCCN)C(C)C)C(=O)N[C@@H](CCC(N)=O)C(=O)N[C@@H](CC(C)C)C(=O)N[C@@H](Cc1ccccc1)C(=O)N[C@@H](Cc1c[nH]cn1)C(=O)N[C@@H](CCCCN)C(=O)N[C@@H](CCCCN)C(=O)O [BPI.144] (H-KSKVG[Cha]LIQLFHKK-OH; N-terminus and C-terminus assumed)	510.02 pmol	b (no detectable activity up to 5 μg/well)	b (no detectable activity up to 5 μg/well)	695.19	12.50 (≈ 7.44 µM)			
KSKVFWLIQLFHKK [BPI.95]	330.88 pmol	2,809.70 pmol	b (no detectable activity up to 5 μg/well)	>1397.64		224.5	551	
KSKVGVLIQLFHKK [BPI.166]	514.00 pmol	9,586.00 pmol	b (no detectable activity up to 5 μg/well)	170.65	3.13			
KSKVGWLIALFHKK [BPI.39]	316.20 pmol	b (no detectable activity up to 5 μg/well)		1791.81	12.50	335.6	757	greater than 8 fold
KSKVGWLIKLFHKK [BPI.92]	331.80 pmol	b (no detectable activity up to 5 μg/well)	b (no detectable activity up to 5 μg/well)	298.72	3.13	227.3	667	
KSKVGWLIQLFFKK [BPI.94]	922.54 pmol	3,658.80 pmol	9,446.60 pmol	>922.54		216.1	407	
KSKVGWLIQLFLKK [BPI.87]	188.72 pmol	23,949.00 pmol	868,991.70 pmol	>1535.78		280.0	575	
KSKVGWLIQWFHKK [BPI.142]	922.21 pmol	b (no detectable activity up to 5 μg/well)	b (no detectable activity up to 5 μg/well)	1243.79	12.50			
KSKVGYLIQLFHKK [BPI.139]	1,261.37 pmol	3,793.91 pmol	b (no detectable activity up to 5 μg/well)	322.96	6.25			
KSKVKFLIQLFHKK [BPI.138]	64.57 pmol	995.40 pmol	b (no detectable activity up to 5 μg/well)	256.82	3.13			
KSKVKWLIQLFHKK [BPI.97]	295.58 pmol	b (no detectable activity up to 5 μg/well)	b (no detectable activity up to 5 μg/well)	213.22	3.13	252.2	765	
KSKVLWLIQLFHKK [BPI.85]	227.35 pmol	295,208.43 pmol	14,677.13 pmol	>1881.18		233.1	682	
KWKVFKKIEKKSKVGWLIQLFHKK [BPI.149]	44.00 pmol	391.00 pmol	b (no detectable activity up to 5 μg/well)	>1397.76	12.50			
